# Article PMC10065276, “Enhanced therapeutic window for antimicrobial Pept-ins by investigating their structure-activity relationship” (PLOS ONE, 2023)
# Residues, ends and D or L forms follow the SMILES beside them.
# System: E. coli BL21
# Details: BL21, 17 h
# How it was run: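 EUCAST broth microdilution in Mueller-Hinton medium; end-exponential culture diluted to 0.005 McF (~1.5x10^6 CFU/mL) before 1:1 mixing with two-fold peptide dilutions (0.75 to 100 μg/mL), triplicates.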
row,Structure (SMILES),BL21 MIC [µg/mL]
1,CC[C@H](C)[C@H](NC(=O)CNC(=O)[C@H](CC(C)C)NC(=O)[C@@H](N)CCCNC(=N)N)C(=O)N[C@@H](C)C(=O)N[C@H](C(=O)N[C@@H](C)C(=O)N[C@@H](CC(C)C)C(=O)N[C@@H](CCCNC(=N)N)C(=O)N[C@@H](CCCNC(=N)N)C(=O)N1CCC[C@H]1C(=O)N[C@@H](CCCNC(=N)N)C(=O)N[C@@H](CC(C)C)C(=O)N[C@@H](C)C(=O)N[C@H](C(=O)N[C@@H](C)C(=O)N[C@H](C(=O)N[C@@H](C)C(=O)N[C@@H](CC(C)C)C(=O)N[C@@H](CCCNC(=N)N)C(=O)N[C@@H](CCCNC(=N)N)C(=O)O)C(C)C)[C@@H](C)CC)C(C)C [Peptide P33-G14A] (H-RLGIAVALRRPRLAIAVALRR-OH),6.25
2,CC[C@H](C)[C@H](NC(=O)CNC(=O)[C@H](CC(C)C)NC(=O)[C@H](CCCNC(=N)N)NC(=O)[C@@H]1CCCN1C(=O)[C@H](CCCNC(=N)N)NC(=O)[C@H](CCCNC(=N)N)NC(=O)[C@H](CC(C)C)NC(=O)[C@H](C)NC(=O)[C@@H](NC(=O)[C@H](C)NC(=O)[C@H](C)NC(=O)CNC(=O)[C@H](CC(C)C)NC(=O)[C@@H](N)CCCNC(=N)N)C(C)C)C(=O)N[C@@H](C)C(=O)N[C@H](C(=O)N[C@@H](C)C(=O)N[C@@H](CC(C)C)C(=O)N[C@@H](CCCNC(=N)N)C(=O)N[C@@H](CCCNC(=N)N)C(=O)O)C(C)C [Peptide P33-I4A] (H-RLGAAVALRRPRLGIAVALRR-OH),12.50
3,CC[C@H](C)[C@H](NC(=O)CNC(=O)[C@H](CC(C)C)NC(=O)[C@@H](N)CCCNC(=N)N)C(=O)N[C@@H](C)C(=O)N[C@H](C(=O)N[C@@H](C)C(=O)N[C@@H](CC(C)C)C(=O)N[C@@H](CCCNC(=N)N)C(=O)N[C@@H](CCCNC(=N)N)C(=O)N1CCC[C@H]1C(=O)N[C@@H](CCCNC(=N)N)C(=O)N[C@@H](CC(C)C)C(=O)NCC(=O)N[C@@H](C)C(=O)N[C@@H](C)C(=O)N[C@H](C(=O)N[C@@H](C)C(=O)N[C@@H](CC(C)C)C(=O)N[C@@H](CCCNC(=N)N)C(=O)N[C@@H](CCCNC(=N)N)C(=O)O)C(C)C)C(C)C [Peptide P33-I15A] (H-RLGIAVALRRPRLGAAVALRR-OH),12.50
4,CC[C@H](C)[C@H](NC(=O)CNC(=O)[C@H](CC(C)C)NC(=O)[C@H](CCCNC(=N)N)NC(=O)[C@@H]1CCCN1C(=O)[C@H](CCCNC(=N)N)NC(=O)[C@H](CCCNC(=N)N)NC(=O)[C@H](CC(C)C)NC(=O)[C@H](C)NC(=O)[C@@H](NC(=O)[C@H](C)NC(=O)[C@@H](NC(=O)CNC(=O)[C@H](C)NC(=O)[C@@H](N)CCCNC(=N)N)[C@@H](C)CC)C(C)C)C(=O)N[C@@H](C)C(=O)N[C@H](C(=O)N[C@@H](C)C(=O)N[C@@H](CC(C)C)C(=O)N[C@@H](CCCNC(=N)N)C(=O)N[C@@H](CCCNC(=N)N)C(=O)O)C(C)C [Peptide P33-L2A] (H-RAGIAVALRRPRLGIAVALRR-OH),12.50
5,CC[C@H](C)[C@H](NC(=O)CNC(=O)[C@H](C)NC(=O)[C@H](CCCNC(=N)N)NC(=O)[C@@H]1CCCN1C(=O)[C@H](CCCNC(=N)N)NC(=O)[C@H](CCCNC(=N)N)NC(=O)[C@H](CC(C)C)NC(=O)[C@H](C)NC(=O)[C@@H](NC(=O)[C@H](C)NC(=O)[C@@H](NC(=O)CNC(=O)[C@H](CC(C)C)NC(=O)[C@@H](N)CCCNC(=N)N)[C@@H](C)CC)C(C)C)C(=O)N[C@@H](C)C(=O)N[C@H](C(=O)N[C@@H](C)C(=O)N[C@@H](CC(C)C)C(=O)N[C@@H](CCCNC(=N)N)C(=O)N[C@@H](CCCNC(=N)N)C(=O)O)C(C)C [Peptide P33-L13A] (H-RLGIAVALRRPRAGIAVALRR-OH),6.25
6,CC[C@H](C)[C@H](NC(=O)CNC(=O)[C@H](CC(C)C)NC(=O)[C@H](CCCNC(=N)N)NC(=O)[C@@H]1CCCN1C(=O)[C@H](CCCNC(=N)N)NC(=O)[C@H](CCCNC(=N)N)NC(=O)[C@H](CC(C)C)NC(=O)[C@H](C)NC(=O)[C@@H](NC(=O)[C@H](C)NC(=O)[C@@H](NC(=O)CNC(=O)[C@H](CC(C)C)NC(=O)[C@@H](N)CCCNC(=N)N)[C@@H](C)CC)C(C)C)C(=O)N[C@@H](C)C(=O)N[C@H](C(=O)N[C@@H](C)C(=O)N[C@@H](C)C(=O)N[C@@H](CCCNC(=N)N)C(=O)N[C@@H](CCCNC(=N)N)C(=O)O)C(C)C [Peptide P33-L19A] (H-RLGIAVALRRPRLGIAVAARR-OH),6.25
7,CC[C@H](C)[C@H](NC(=O)CNC(=O)[C@H](CC(C)C)NC(=O)[C@H](CCCNC(=N)N)NC(=O)[C@@H]1CCCN1C(=O)[C@H](CCCNC(=N)N)NC(=O)[C@H](CCCNC(=N)N)NC(=O)[C@H](CC(C)C)NC(=O)[C@H](C)NC(=O)[C@@H](NC(=O)[C@H](C)NC(=O)[C@@H](NC(=O)CNC(=O)[C@H](CC(C)C)NC(=O)[C@H](C)N)[C@@H](C)CC)C(C)C)C(=O)N[C@@H](C)C(=O)N[C@H](C(=O)N[C@@H](C)C(=O)N[C@@H](CC(C)C)C(=O)N[C@@H](CCCNC(=N)N)C(=O)N[C@@H](CCCNC(=N)N)C(=O)O)C(C)C [Peptide P33-R1A] (H-ALGIAVALRRPRLGIAVALRR-OH),6.25
8,CC[C@H](C)[C@H](NC(=O)CNC(=O)[C@H](CC(C)C)NC(=O)[C@@H](N)CCCNC(=N)N)C(=O)N[C@@H](C)C(=O)N[C@H](C(=O)N[C@@H](C)C(=O)N[C@@H](CC(C)C)C(=O)N[C@@H](C)C(=O)N[C@@H](CCCNC(=N)N)C(=O)N1CCC[C@H]1C(=O)N[C@@H](CCCNC(=N)N)C(=O)N[C@@H](CC(C)C)C(=O)NCC(=O)N[C@H](C(=O)N[C@@H](C)C(=O)N[C@H](C(=O)N[C@@H](C)C(=O)N[C@@H](CC(C)C)C(=O)N[C@@H](CCCNC(=N)N)C(=O)N[C@@H](CCCNC(=N)N)C(=O)O)C(C)C)[C@@H](C)CC)C(C)C [Peptide P33-R9A] (H-RLGIAVALARPRLGIAVALRR-OH),6.25
9,CC[C@H](C)[C@H](NC(=O)CNC(=O)[C@H](CC(C)C)NC(=O)[C@@H](N)CCCNC(=N)N)C(=O)N[C@@H](C)C(=O)N[C@@H](C)C(=O)N[C@@H](C)C(=O)N[C@@H](CC(C)C)C(=O)N[C@@H](CCCNC(=N)N)C(=O)N[C@@H](CCCNC(=N)N)C(=O)N1CCC[C@H]1C(=O)N[C@@H](CCCNC(=N)N)C(=O)N[C@@H](CC(C)C)C(=O)NCC(=O)N[C@H](C(=O)N[C@@H](C)C(=O)N[C@H](C(=O)N[C@@H](C)C(=O)N[C@@H](CC(C)C)C(=O)N[C@@H](CCCNC(=N)N)C(=O)N[C@@H](CCCNC(=N)N)C(=O)O)C(C)C)[C@@H](C)CC [Peptide P33-V6A] (H-RLGIAAALRRPRLGIAVALRR-OH),6.25
10,CC[C@H](C)[C@H](NC(=O)CNC(=O)[C@H](CC(C)C)NC(=O)[C@H](CCCNC(=N)N)NC(=O)[C@@H]1CCCN1C(=O)[C@H](CCCNC(=N)N)NC(=O)[C@H](CCCNC(=N)N)NC(=O)[C@H](CC(C)C)NC(=O)[C@H](C)NC(=O)[C@@H](NC(=O)[C@H](C)NC(=O)[C@@H](NC(=O)CNC(=O)[C@H](CC(C)C)NC(=O)[C@@H](N)CCCNC(=N)N)[C@@H](C)CC)C(C)C)C(=O)N[C@@H](C)C(=O)N[C@@H](C)C(=O)N[C@@H](C)C(=O)N[C@@H](CC(C)C)C(=O)N[C@@H](CCCNC(=N)N)C(=O)N[C@@H](CCCNC(=N)N)C(=O)O [Peptide P33-V17A] (H-RLGIAVALRRPRLGIAAALRR-OH),6.25
11,CC[C@H](C)[C@H](NC(=O)CNC(=O)[C@H](CC(C)C)NC(=O)[C@H](CCCNC(=N)N)NC(=O)[C@@H]1CCCN1C(=O)[C@H](CC(C)C)NC(=O)[C@H](C)NC(=O)[C@@H](NC(=O)[C@H](C)NC(=O)[C@@H](NC(=O)CNC(=O)[C@H](CC(C)C)NC(=O)[C@@H](N)CCCNC(=N)N)[C@@H](C)CC)C(C)C)C(=O)N[C@@H](C)C(=O)N[C@H](C(=O)N[C@@H](C)C(=O)N[C@@H](CC(C)C)C(=O)N[C@@H](CCCNC(=N)N)C(=O)O)C(C)C [Peptide P33_3R_1] (H-RLGIAVALPRLGIAVALR-OH),12.5
12,CC[C@H](C)[C@H](NC(=O)CNC(=O)[C@H](CC(C)C)NC(=O)[C@@H]1CCCN1C(=O)[C@H](CCCNC(=N)N)NC(=O)[C@H](CC(C)C)NC(=O)[C@H](C)NC(=O)[C@@H](NC(=O)[C@H](C)NC(=O)[C@@H](NC(=O)CNC(=O)[C@H](CC(C)C)NC(=O)[C@@H](N)CCCNC(=N)N)[C@@H](C)CC)C(C)C)C(=O)N[C@@H](C)C(=O)N[C@H](C(=O)N[C@@H](C)C(=O)N[C@@H](CC(C)C)C(=O)N[C@@H](CCCNC(=N)N)C(=O)O)C(C)C [Peptide P33_3R_2] (H-RLGIAVALRPLGIAVALR-OH),25.00
13,CC[C@H](C)[C@H](NC(=O)CNC(=O)[C@H](CC(C)C)NC(=O)[C@H](C)NC(=O)[C@@H]1CCCN1C(=O)[C@H](CCCNC(=N)N)NC(=O)[C@H](C)NC(=O)[C@H](CC(C)C)NC(=O)[C@H](C)NC(=O)[C@@H](NC(=O)[C@H](C)NC(=O)[C@@H](NC(=O)CNC(=O)[C@H](CC(C)C)NC(=O)[C@@H](N)CCCNC(=N)N)[C@@H](C)CC)C(C)C)C(=O)N[C@@H](C)C(=O)N[C@H](C(=O)N[C@@H](C)C(=O)N[C@@H](CC(C)C)C(=O)N[C@@H](C)C(=O)N[C@@H](CCCNC(=N)N)C(=O)O)C(C)C [Peptide P33_3R_3] (H-RLGIAVALARPALGIAVALAR-OH),>100
14,CC[C@H](C)[C@H](NC(=O)CNC(=O)[C@H](CC(C)C)NC(=O)[C@H](C)NC(=O)[C@@H]1CCCN1C(=O)[C@H](C)NC(=O)[C@H](CCCNC(=N)N)NC(=O)[C@H](CC(C)C)NC(=O)[C@H](C)NC(=O)[C@@H](NC(=O)[C@H](C)NC(=O)[C@@H](NC(=O)CNC(=O)[C@H](CC(C)C)NC(=O)[C@@H](N)CCCNC(=N)N)[C@@H](C)CC)C(C)C)C(=O)N[C@@H](C)C(=O)N[C@H](C(=O)N[C@@H](C)C(=O)N[C@@H](CC(C)C)C(=O)N[C@@H](C)C(=O)N[C@@H](CCCNC(=N)N)C(=O)O)C(C)C [Peptide P33_3R_4] (H-RLGIAVALRAPALGIAVALAR-OH),50.00
15,CC[C@H](C)[C@H](NC(=O)CNC(=O)[C@H](CC(C)C)NC(=O)[C@H](CCCNC(=N)N)NC(=O)[C@@H]1CCCN1C(=O)[C@H](CCCNC(=N)N)NC(=O)[C@H](CC(C)C)NC(=O)[C@H](C)NC(=O)[C@@H](NC(=O)[C@H](C)NC(=O)[C@@H](NC(=O)CNC(=O)[C@H](CC(C)C)NC(=O)[C@@H](N)CCCNC(=N)N)[C@@H](C)CC)C(C)C)C(=O)N[C@@H](C)C(=O)N[C@H](C(=O)N[C@@H](C)C(=O)N[C@@H](CC(C)C)C(=O)N[C@@H](CCCNC(=N)N)C(=O)O)C(C)C [Peptide P33_4R_1] (H-RLGIAVALRPRLGIAVALR-OH),6.25
